From patent EP0106988A1, “Pharmacologically active lactam derivatives” (THE WELLCOME FOUNDATION LIMITED, priority 1982, dated 1984) come the findings set out here.

Molecules are shown by their SMILES.

What is called ED50 is the midpoint of the dose-response relation.

Type in all cases: in vivo
In experiment [1] the test system is rat. Nature of the experiment: Carrageenin pleurisy assay (CPA), acute anti-inflammatory activity. Conditions: dose required to reduce the 3 hour exudate volume by 50%. The protocol: Following the procedure described by Vinegar et al. in Proc.Soc.Exp.Biol.Med. 151, 556, (1976), the actue anti-inflammatory activityof compounds of formula (I) was compared with that of known anti-inflammatory drugs in the rat. The average 3 hour exudate volume for each drug treated group was determined and the % inhibition relative to solvent-fed control animals calculated, the ED50 being the dose required to reduce the 3 hour exudate volume by 50%.

Experiment [2] is described as follows: Modified trypsin hyperalgesic assay (THA). To be noted: 1 h; analgesia; pain scores determined 60 minutes after trypsin injection. The procedure: The procedure described by Vinegar et al. in Eur. J] […] The analgesic agents were administered 30 minutes after the administration of trypsin. In addition, a modification of Vinegar's published assay was carried out, comprising the administration of analgesic agent preceding subplantar injectin of trypsin (0.10 ml) of 10% solution of trypsin in pyrogen-free water by 15 minutes. In both THA's, pain scores were determined 60 minutes after trypsin injection. The results of the modification was to increase the sensitivity of the THA to the mild analgesic action of the agents.

Experiment [3] concerns rat. The experiment is described as follows: Rat hot plate assay. Conditions: po, 1 h, administered orally by gavage 60 min prior to testing, protected = no response within 18.3 seconds. The text has this:
The rat hot plate assay incorporated 2 modifications of the mouse hot plate assay originally described by Eddy et al, J. Pharmacol. Exp. Ther. 98, 121-137 (1950). The first modification was enlargement of the diameter of the cylindrical (water filled) copper plate to 25.0 cm to accommodate rats instead of mice.
The second modification was the use of a temperature controller to regulate a 250 watt infrared heat lamp which was activated via a thermistor probe attached to the undersurface of the top of the copper plate. The surface temperature was thus maintained at 45 + 1.0°C (N=28 measurements of the hot plate temperature under experimental conditions). The time in which a rat placed on the hotplate responded by lifting, shaking or licking either or its hind or forelimbs was recorded in tenths of a second.
Only animals responding in pretest within 6-13 seconds were used in the studies. Drugs were suspended in 0.5% sodium carboxymethylcellulose and administered orally, by gavage, in a volume of 1.00 ml/100 g.b wt. 60 min prior to testing. […] The reaction time of 18.3 seconds represented the sum of the mean protest times of 40 untreated rats plus the time of 3 standard deviations of the mean.ED50's and their standard errors were estimated from a graph of the dose-response curves using the method of Miller and Tainter (Proc.Soc.Exp.Biol.Med. 57, 261-262 (1944). Following this procedure the analgesic activity of the compounds of formula (I) was compared to that of standard analgesic drugs.
Background: Thermal pain tests record how soon the animal reacts.

For `C[C@@H]1CN(c2ccc3c(c2)OCO3)C(=O)[C@H]1C` (relative stereo) [Example 4, trans-1-(1,3-benzodioxol-5-yl)-3,4-dimethyl-pyrrolidin-2-one], the median effective dose (ED50) was found to be 75 mg/kg in experiment [1] and 46 mg/kg in experiment [2].
`CC1CCN(c2ccc3c(c2)OCO3)C1=O` (stereo not shown) [Example 26, 1-(1,3-benzodioxol-5-yl)-3-methyl-pyrrolidin-2-one] yielded an ED50 in experiment [1] of 39 mg/kg.
`CCc1cccc(N2CCCC2=O)c1` [Example 20, 1-(3-ethylphenyl)-pyrrolidin-2-one]: the median effective dose (ED50) in experiment [1] is 78 mg/kg.
As to `O=C1CCCN1c1ccccn1` [Example 21, 1-(2-pyridyl)-pyrrolidin-2-one], the ED50 in experiment [1] came to 41 mg/kg.
As for `O=C(O)CCCNc1ccc2c(c1)OCO2` [Example 5, 4-(1,3-benzodioxol-5-yl)amino butyric acid], the figures for the median effective dose (ED50) in experiment [1], in experiment [2] and in experiment [3] were 42 mg/kg, 60 mg/kg and 120 mg/kg, respectively.
Turning to `O=C1CCCN1c1ccc2[nH]ncc2c1` [Example 7, 1-(1H-indazol-5-yl)-pyrrolidin-2-one], the median effective dose (ED50) in experiment [1] turned out to be 34 mg/kg; in experiment [2] it was 45 mg/kg; in experiment [3], 30 mg/kg.
`COc1ccc(OC)c(N2CCCC2=O)c1` [Example 6, 1-(2,5-dimethoxyphenyl)-pyrrolidin-2-one]: the ED50 in experiment [1] turned out to be 80 mg/kg.
On to `C=CCOc1ccccc1N1CCCC1=O` [Example 28, 1-(2-allyloxyphenyl)-pyrrolidin-2-one], for which the ED50 in experiment [1] was 62 mg/kg; in experiment [3], 120 mg/kg.
In the case of `CC1CC(=O)N(c2ccc3c(c2)OCO3)C1` (stereo not shown) [Example 1, 1-(1,3-benzodioxol-5-yl)-4-melhyl-pyrrolidin-2-one], the 50% effective dose (ED50) in experiment [1] worked out at 96 mg/kg; in experiment [2] it was 80 mg/kg; in experiment [3] it was 120 mg/kg.
In the case of `O=C(O)COc1ccccc1N1CCCC1=O` [Example 37, 2-(2-oxy-1-pyrrolidinyl)phenoxyacetic acid], the 50% effect level in experiment [1] (ED50) was put at a dose of 50 mg/kg.
In the case of `C#CCOc1ccccc1N1CCCC1=O` [Example 27, 1-(2-(propyl-yn-yloxy)phenyl)-pyrrolidin-2-one], the ED50 in experiment [1] worked out at 35 mg/kg; in experiment [2], 40 mg/kg.
As to `Cc1cccnc1N1CCCC1=O` [Example 24, 1-(3-methyl-2-pyridyl)-pyrrolidin-2-one], the 50% effective dose (ED50) in experiment [1] came to 29 mg/kg.
With `C=CCOc1ccc(N2CCCC2=O)cc1` [Example 2, 1-(4-allyloxyphenyl)-pyrrolidin-2-one], it took a dose of 57 mg/kg to reach the 50% effect level in experiment [1] (ED50). This ED50 lies about 2-fold higher than the previous one.
Compound `COc1cc(OC)cc(N2CCCC2=O)c1` [Example 10, 1-(3,5-dimethoxyphenyl)-pyrrolidin-2-one] displayed an ED50 in experiment [1] of 95 mg/kg. Against the preceding compound, the ED50 is about 1.7-fold higher.
As to `C#CC(C)Oc1ccccc1N1CCCC1=O` (stereo not shown) [Example 31, 1-(2-(1-methyl-prop-2-yn-yl)oxyphenyl)-pyrrolidin-2-one], the ED50 in experiment [1] came out at 39 mg/kg.
`CCOc1ccc(N2CCCC2=O)cc1OCC` [Example 18, 1-(3,4-diethoxyphenyl)-pyrrolidin-2-one]: it took a dose of 19 mg/kg to reach the 50% effect level in experiment [1] (ED50).
